Holding throughout (assay type): cell-based
For one experiment, the target named is T1, GABA transporter 4 (Mus musculus, UniProt P31650).
T1 sequence (P31650 whole entry): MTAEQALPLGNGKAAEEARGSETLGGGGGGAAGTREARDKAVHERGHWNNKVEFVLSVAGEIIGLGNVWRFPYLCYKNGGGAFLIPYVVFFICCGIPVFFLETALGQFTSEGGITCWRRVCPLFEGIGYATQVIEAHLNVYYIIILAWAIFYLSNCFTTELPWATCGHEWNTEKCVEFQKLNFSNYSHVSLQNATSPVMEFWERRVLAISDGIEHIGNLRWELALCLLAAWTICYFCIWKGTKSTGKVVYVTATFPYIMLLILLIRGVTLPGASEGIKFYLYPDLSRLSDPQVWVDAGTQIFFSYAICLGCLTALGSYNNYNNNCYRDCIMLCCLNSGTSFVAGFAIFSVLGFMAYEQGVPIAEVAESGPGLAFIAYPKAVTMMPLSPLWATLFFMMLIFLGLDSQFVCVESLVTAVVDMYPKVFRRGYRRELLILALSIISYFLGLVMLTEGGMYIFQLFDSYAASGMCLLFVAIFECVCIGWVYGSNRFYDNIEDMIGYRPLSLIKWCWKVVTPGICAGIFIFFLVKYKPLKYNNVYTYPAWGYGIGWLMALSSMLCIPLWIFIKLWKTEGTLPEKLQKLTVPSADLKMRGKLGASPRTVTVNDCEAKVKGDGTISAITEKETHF
The experiment is described as follows: Inhibition of mouse mGAT4 expressed in HEK293 cells assessed as inhibition of [3H]GABA uptake after 3 mins incubation by TopCount microplate scintillation counting analysis. The settings on record: read-out: IC50.

The target of experiment [1] is Sodium- and chloride-dependent GABA transporter 1 (Mus musculus, UniProt P31648). The experiment is described as follows: Inhibition of mouse mGAT1 expressed in HEK293 cells assessed as inhibition of [3H]GABA uptake after 3 mins incubation by TopCount microplate scintillation counting analysis. As to conditions: read-out: IC50.
Another experiment has as its target T2, GABA transporter 3 (Mus musculus, UniProt P31649).
T2 sequence (P31649 whole entry): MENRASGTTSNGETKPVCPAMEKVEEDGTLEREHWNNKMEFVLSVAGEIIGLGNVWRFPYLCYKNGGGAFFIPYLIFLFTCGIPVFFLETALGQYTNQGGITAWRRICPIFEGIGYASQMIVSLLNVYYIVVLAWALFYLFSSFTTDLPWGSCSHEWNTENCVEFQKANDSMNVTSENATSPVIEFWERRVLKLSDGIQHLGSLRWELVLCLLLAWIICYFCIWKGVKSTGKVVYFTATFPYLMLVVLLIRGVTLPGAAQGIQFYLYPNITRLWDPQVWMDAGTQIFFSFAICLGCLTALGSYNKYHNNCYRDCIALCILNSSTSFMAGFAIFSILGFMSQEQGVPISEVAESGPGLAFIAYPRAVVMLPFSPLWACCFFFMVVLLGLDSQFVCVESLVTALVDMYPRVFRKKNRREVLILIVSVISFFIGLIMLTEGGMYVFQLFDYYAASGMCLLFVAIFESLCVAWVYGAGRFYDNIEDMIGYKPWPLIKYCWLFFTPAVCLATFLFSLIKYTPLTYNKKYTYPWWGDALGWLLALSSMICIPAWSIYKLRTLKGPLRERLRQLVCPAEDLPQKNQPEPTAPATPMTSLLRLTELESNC
The experiment is described as follows: Inhibition of mouse mGAT3 expressed in HEK293 cells assessed as inhibition of [3H]GABA uptake after 3 mins incubation by TopCount microplate scintillation counting analysis. The settings on record: read-out: IC50.

The target in the next experiment is T3, GABA transporter 2 (Mus musculus, UniProt P31651).
T3 sequence (P31651 whole entry): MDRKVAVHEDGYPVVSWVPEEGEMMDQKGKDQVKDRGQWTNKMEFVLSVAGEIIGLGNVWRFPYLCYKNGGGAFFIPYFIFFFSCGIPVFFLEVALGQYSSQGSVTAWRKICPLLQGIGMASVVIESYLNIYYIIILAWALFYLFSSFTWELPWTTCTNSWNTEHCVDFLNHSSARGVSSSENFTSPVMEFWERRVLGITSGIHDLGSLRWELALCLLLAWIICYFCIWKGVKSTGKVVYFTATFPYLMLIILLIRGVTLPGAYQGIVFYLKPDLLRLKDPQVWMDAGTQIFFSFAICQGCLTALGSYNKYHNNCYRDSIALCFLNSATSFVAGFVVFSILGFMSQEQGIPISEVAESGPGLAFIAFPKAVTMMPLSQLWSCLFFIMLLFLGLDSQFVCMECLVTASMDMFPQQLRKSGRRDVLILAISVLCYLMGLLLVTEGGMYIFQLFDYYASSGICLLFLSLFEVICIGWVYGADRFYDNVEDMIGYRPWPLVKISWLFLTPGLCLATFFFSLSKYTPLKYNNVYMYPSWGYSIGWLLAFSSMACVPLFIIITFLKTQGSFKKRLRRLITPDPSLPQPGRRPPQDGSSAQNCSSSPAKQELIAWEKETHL
The experiment in a line: Inhibition of mouse mGAT2 expressed in HEK293 cells assessed as inhibition of [3H]GABA uptake after 3 mins incubation by TopCount microplate scintillation counting analysis.

Some results are limits rather than exact numbers.

`CNCCON=C(c1ccccc1)c1ccccc1`: the IC50 was 829 µM on GABA transporter 4, above 2000 µM in experiment [1], 1050 µM at GABA transporter 3 and 430 µM at GABA transporter 2 (read-out: IC50).

With `CN(CCOC(c1ccc(C(F)(F)F)cc1)c1ccc(C(F)(F)F)cc1)[C@H]1CCCC[C@H]1C(=O)O`, the IC50 at GABA transporter 4 is 303 µM; in experiment [1], 631 µM; at GABA transporter 3, 392 µM; on GABA transporter 2 (read-out: IC50), 90 µM.

As to `CN(CCON=C(c1ccccc1)c1ccccc1)[C@@H]1CCCC[C@@H]1C(=O)O`, the IC50 at GABA transporter 4 was above 1000 µM; in experiment [1], above 1000 µM; at GABA transporter 3, above 1000 µM; on GABA transporter 2 (read-out: IC50), 443 µM.

Consider `Cc1ccsc1C(=CCCN(C)[C@@H]1CCCC[C@@H]1C(=O)O)c1sccc1C`, for which the IC50 on GABA transporter 4 amounted to 380 µM; in experiment [1] it was 917 µM; at GABA transporter 3, 328 µM; at GABA transporter 2 (read-out: IC50), 94.9 µM.

Turning to `CN(CCC=C1c2ccccc2CCc2ccccc21)[C@@H]1CCCC[C@H]1C(=O)O`, the IC50 was 883 µM at GABA transporter 4, 614 µM in experiment [1], 966 µM on GABA transporter 3 and 119 µM at GABA transporter 2 (read-out: IC50).

For `CCN1CCNCC1C(=O)O` (racemic), the IC50 (at GABA transporter 4; in experiment [1]; on GABA transporter 3; on GABA transporter 2 (read-out: IC50)) was above 1000 µM each time.

In the case of `Cc1ccsc1C(=CCCN1CCN(Cc2ccccc2)CC(C(=O)O)C1)c1sccc1C` (stereo unspecified), the IC50 was above 1000 µM at GABA transporter 4, above 1000 µM in experiment [1], above 1000 µM on GABA transporter 3 and 309 µM at GABA transporter 2 (read-out: IC50).

As for `O=C(O)CCNCCC=C1c2ccccc2CCc2ccccc21`, the IC50 on GABA transporter 4 was determined as 4060 µM; in experiment [1], 281 µM; on GABA transporter 3, 3250 µM; on GABA transporter 2 (read-out: IC50), 1380 µM.

On to `CCCCN1CCN(CCON=C(c2ccccc2)c2ccccc2)CC(C(=O)O)C1` (stereo unspecified), for which the IC50 (at GABA transporter 4; in experiment [1]; on GABA transporter 3; on GABA transporter 2 (read-out: IC50)) was above 1000 µM each time.

As for `Cc1ccsc1C(=CCCn1cc(CNCCC(=O)O)nn1)c1sccc1C`, the IC50 (on GABA transporter 4; in experiment [1]; at GABA transporter 3; on GABA transporter 2 (read-out: IC50)) was above 2000 µM in each case.

Turning to `CN(CCON=C(c1ccccc1)c1ccccc1)[C@H]1CCCC[C@H]1C(=O)O`, the IC50 is above 1000 µM on GABA transporter 4, above 1000 µM in experiment [1], above 1000 µM at GABA transporter 3 and 417 µM on GABA transporter 2 (read-out: IC50).

Regarding `CCN1CCNC(C(=O)O)C1` (racemic), the IC50 (at GABA transporter 4; in experiment [1]; at GABA transporter 3; on GABA transporter 2 (read-out: IC50)) was above 1000 µM in each case.

`CN(CCCS(=O)(=O)O)CCON=C(c1ccccc1)c1ccccc1`: the IC50 at GABA transporter 4 is above 1000 µM; in experiment [1] it was 828 µM; at GABA transporter 3 it was above 1000 µM; on GABA transporter 2 (read-out: IC50), above 1000 µM.

Consider `Cc1ccsc1C(=CCCN1CCNC(C(=O)O)C1)c1sccc1C` (racemic), for which the IC50 at GABA transporter 4 is above 1000 µM; in experiment [1] it was 95.6 µM; on GABA transporter 3, above 1000 µM; on GABA transporter 2 (read-out: IC50), above 1000 µM.

For the compound `CN(CCON=C(c1ccccc1)c1ccccc1)[C@@H]1CCCC[C@@H]1CO`, the IC50 at GABA transporter 4 is 341 µM; in experiment [1], 426 µM; on GABA transporter 3, 349 µM; at GABA transporter 2 (read-out: IC50) it was 76.6 µM; at GABA transporter 2 (read-out: pIC50 (converted)), 77.6 µM.

The record behind these values is ChEMBL document CHEMBL3399947, “Structure activity relationship of selective GABA uptake inhibitors” (Bioorg Med Chem, 2015).
